Results as given in ChEMBL document CHEMBL3576837, “Targeted natural products discovery from marine cyanobacteria using combined phylogenetic and mass spectrometric evaluation” (2015).

How the values were obtained:
Type in all cases: functional
[1] = tested on: HT-29; experiment: Cytotoxicity against human HT-29 cells assessed as cell viability at 0.32 nM incubated for 48 hrs by MTT assay; conditions: HT-29, 48 h, read-out: Activity
[2] = tested on: HT-29; experiment: Cytotoxicity against human HT-29 cells assessed as cell viability at 0.32 nM incubated for 48 hrs in presence of 4 nM largazole by MTT assay
[3] = tested on: HT-29; experiment: Cytotoxicity against human HT-29 cells assessed as cell viability at 4 nM incubated for 48 hrs by MTT assay; conditions: HT-29, 48 h, read-out: Activity
[4] = tested on: HT-29; experiment: Cytotoxicity against human HT-29 cells assessed as cell viability at 4 nM incubated for 48 hrs in presence of 0.32 nM dolastatin 10 by MTT assay

| SMILES | viability at 0.00032 µM [1] [%] | Activity [2] [%] | viability at 0.004 µM [3] [%] | Activity [4] [%] |
| --- | --- | --- | --- | --- |
| CC[C@H](C)[C@@H]([C@@H](CC(=O)N1CCC[C@H]1[C@H](OC)[C@@H](C)C(=O)N[C@@H](Cc1ccccc1)c1nccs1)OC)N(C)C(=O)[C@@H](NC(=O)[C@H](C(C)C)N(C)C)C(C)C [DOLASTATIN-10] | 80 | 55 | – | – |
| CCCCCCCC(=O)SCC/C=C/[C@@H]1CC(=O)NCc2nc(cs2)C2=N[C@@](C)(CS2)C(=O)N[C@@H](C(C)C)C(=O)O1 [LARGAZOLE] | – | – | 80 | 55 |
